The test system of this assay is central dopamine receptors. Put plainly: Stereotypy-triggering activity in rats after one-time i.p. pretreatment (method of Horowski and Wachtel). The class given is in vivo, female Wistar rats. The conditions noted are these: ip, rat. Here is the method: The dopaminergic agonistic effect is determined, for example, with the help of method, described by Horowski and Wachtel, of the registration of stereotypies by observation of behavior (Eur. J. Pharmacol. 36: 373-383, 1976):
Immediately after intraperitoneal test substance or vehicle administration,female Wistar rats (90-110 g) are placed individually in observation cages made from transparent acrylic glass (25×19×13.5 cm). At 30, 60, 120, 240, 360 and 480 minutes after pretreatment, the presence of behavior stereotypies (chewing, licking, gnawing) is registered by observation of the animals for 2 minutes (i.e., of 30th-32nd, 60th-62nd, 120th-122nd minutes, etc.). Animals which during the 2-minute observation period show continuous chewing, licking and gnawing movements (longer than 30 seconds) are considered stereotypic.
The number of animals per treatment group with behavior stereotypies is determined during the various observation times. The different treatment groups consist of n=8 animals each. Average effective dose (ED50) is determined with 95% range of confidence for the various observation times with the help of probit analysis.
At 30, 60, 120, 240, 360 and 480 minutes after i.p. pretreatment with test substance or vehicle, the presence of behavior stereotypies in rats (chewing, licking, gnawing) was determined by observation for 2 minutes (i.e., of 30th-32nd, 60th-62nd, 120th-122nd minutes, etc.).

On to `CCCN1C[C@@H](NC(=O)N(CC)CC)C[C@@H]2c3ccc(C)c4[nH]c(C)c(c34)C[C@H]21` [3-(2,14-Dimethyl-6-propyl-8α-ergolinyl)-1,1-diethylurea], for which the 50% effective dose (ED50) is 0.055 mg/kg (0.5 h, 30 min, n=8, 95% range of confidence by probit analysis); less than 0.025 mg/kg (1 h, 60 min, n=8, probit analysis); less than 0.025 mg/kg (2 h, 120 min, n=8, probit analysis); less than 0.025 mg/kg (4 h, 240 min, n=8, probit analysis); 0.071 mg/kg (6 h, 360 min, n=8, 95% range of confidence by probit analysis); 0.072 mg/kg (8 h, 480 min, n=8, 95% range of confidence by probit analysis).

In general, ED50 refers to the dose at which the effect has come halfway, by size or by number of responders.

The values above are taken from US5401748A, “2,14-disubstituted ergolines, their production and use in pharmaceutical compositions” (Schering Aktiengesellschaft, priority 1991, dated 1995).
